Our source for the Kd values is paper PMC6331797, “Escherichia coli ASKA Clone Library Harboring tRNA-Specific Adenosine Deaminase (tadA) Reveals Resistance towards Xanthorrhizol” (Molecules, 2015).

The term Kd denotes the equilibrium constant for the complex coming apart. A low value points to tighter binding.

Holding throughout (assay): tryptophan fluorescence quenching titration with purified protein
Holding throughout (type): binding

Assay [1] addresses T1, tadA (tRNA-specific adenosine deaminase) (Escherichia coli, UniProt P68398).
T1 construct: his-tagged tadA

Assay [2] deals with T2, tadA (tRNA-specific adenosine deaminase) (Escherichia coli, UniProt P68398, A143V).
T2 construct: his-tagged tadA

Assay [3] has as its target T3, tadA (tRNA-specific adenosine deaminase) (Escherichia coli, UniProt P68398, F149G).
T3 construct: his-tagged tadA

T3 sequence (P68398 whole entry F149G): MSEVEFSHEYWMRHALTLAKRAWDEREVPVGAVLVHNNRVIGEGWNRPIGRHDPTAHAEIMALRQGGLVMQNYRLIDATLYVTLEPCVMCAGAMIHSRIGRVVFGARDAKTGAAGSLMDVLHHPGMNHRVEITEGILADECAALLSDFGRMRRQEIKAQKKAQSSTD
T2 sequence (P68398 whole entry A143V): as the sequence (P68398 whole entry F149G) above, with A143V, G149F counted along it
T1 sequence (P68398 whole entry): as the sequence (P68398 whole entry F149G) above, with G149F counted along it

As to `CC(C)=CCC[C@@H](C)c1ccc(C)c(O)c1` [xanthorrhizol], the values for the Kd in assay [1], in assay [2] and in assay [3] were 19 µM, 110 µM and 32.8 µM, respectively.
